Experiment [1] deals with T1, PSA (Homo sapiens, UniProt P07288).
T1 construct: from tissue; host or cells: pooled human seminal fluid
Description: Proteolytic cleavage of protein substrates by PSA (SDS-PAGE, silver staining). It is filed as biochemical. As to conditions: 22 h incubation, 37°C, different plasminogen preparations and PSA batches. The procedure:
(§1) The major form of active PSA (isoform PSA-B) was purified from pooled human seminal fluid by immunoaffinity chromatography followed by anion exchange chromatography. Semenogelins I and II were isolated from human seminal fluid as previously described, but instead of alkylating the proteins, the reducing agent 30 mM dithiothreitol (Sigma-Aldrich, St. Louis, MO) was included in all buffers during purification. Semenogelins were stored in the purification buffer containing 2 M urea and 5 mM EDTA at −70°C. Prior to cleavage by PSA, the buffer was exchanged to 50 mM Tris, pH 7.7, containing 0.15 M NaCl (TBS), with Amicon Ultra centrifugal filter units (MW cut-off 30 kDa) (Millipore, Cork, Ireland) at 4°C, and protein concentration was determined by measuring absorbance at 280 nm.
Protein LoBind tubes (Eppendorf AG, Hamburg, Germany) were used in all protein degradation experiments.
PSA (0.2–1 µM) and 0.5–1 µM of each protein substrate were incubated at 37°C for 22 h in TBS buffer. During the incubation, samples of 15 µl were taken at different time points: 0 min, 10 min, 30 min, 2 h, 5 h and 22 h, and stored at −20°C before further analysis.
Immediately after each incubation, reducing 4× SDS-loading buffer (8% SDS), containing 1 M β-mercaptoethanol or 75 mM dithiothreitol, was added to each sample and proteins were denatured at 70°C for 10 min. The samples were immediately analyzed by SDS-PAGE or frozen at −20°C. Frozen samples were heated again at 70°C before loading on the gel. The cleavage of protein substrates by PSA, i.e., the disappearance of the full-length protein bands, was quantified from scanned images of silver stained gels by the measurement of relative optical densities of the protein bands using ImageJ [40]. […]
Proteins were visualized either by silver staining or Western blotting. […] After 30 min incubation in 0.2% AgNO3, the gel was rinsed briefly with water and proteins were detected with development solution, containing 700 µl/l of 37% formaldehyde, 0.001% sodium thiosulfate and 3% anhydrous Na2CO3. […]

Experiment [2] addresses T1, PSA. The settings on record: reported to inhibit angiogenesis in vitro; ref [20]; cited from earlier work. The procedure: In the present study, we compared the proteolytic activity of PSA towards several protein substrates. As shown previously, semenogelins are cleaved very effectively by PSA. Malm and coworkers (2000) reported that more than half of semenogelin I is degraded after 15 min incubation with PSA [16], [63] and we observed this after 11 min incubation. Proteolysis of the other protein substrates, i.e., fibronectin, IGFBP-3, galectin-3 and nidogen-1, took much longer, reflecting the high substrate specificity of PSA for semenogelins. […] However, the detailed mechanism of the antiangiogenic activity of PSA remains unclear. Some of the proteolytically produced fragments of extracellular matrix (ECM) proteins act as endogenous angiogenesis inhibitors and may mediate the antiangiogenic effect of PSA. […] Although plasminogen ...

Experiment [3] has as its system HUVECs. More on the design: method as in PMID 10702407, PMID 20713592. The settings on record: full-length galectin-3; ref [55], [72]; cited from earlier work.
Experiment [4] relates to HUVECs. Description: HUVEC tube formation assay on Matrigel. It is filed as cell-based, human. As to conditions: two separate experiments. The procedure: Human umbilical vein endothelial cells (HUVECs) were isolated from umbilical cord veins and grown in Endothelial Cell Growth Medium (Promocell, Heidelberg, Germany) with 2% Ultroser G BioSepra serum substitute (PALL BioSepra, Cergy, France) and growth factors EGF and bFGF. For tube formation, HUVECs were grown on top of Matrigel (BD Biosciences) as described previously, [29].
To study the effect of PSA-cleaved protein fragments, 0.08 µM nidogen-1 or 0.4 µM galectin-3 (10 µg/ml each) were first incubated with 1 µM PSA for 24 h at 37°C in PBS (Lonza). Then PSA activity was blocked by one-hour incubation at room temperature with 2 µM monoclonal antibody 5C7 [38]. The mixture containing nidogen-1 or galectin-3 fragments with PSA blocked by antibody or the same amount of intact nidogen-1 or galectin-3 were added together with the cells onto gelled Matrigel and the cells were allowed to form tubular networks for 20 h. Control wells contained either PBS or 1 µM PSA. After overnight incubation, cell culture medium was collected from PBS and PSA control wells for SDS-PAGE and Western blotting. Images of tubular networks (100×magnification) were taken using an Axiovert 200 inverted light microscope connected to an AxioCam digital camera and visualized by AxioVision software (all from Zeiss, Göttingen, Germany).

For experiment [5], the target named is T1, PSA. Description: Enzyme kinetics of PSA with chromogenic peptide substrate S-2586. It is filed as biochemical. As to conditions: S-2586 0.125–5 mM, 175 nM PSA, 0.1% BSA-TBS, room temperature, mean ± SD of two experiments. The procedure: as §1
The proteolytic activity of PSA towards small peptide substrates was compared with two different substrates. […] The absorbance was measured at 405 nm immediately and at 5 min intervals for 30 min and fluorescence at 355/460 nm (excitation/emission) after 10 min, 20 min, 40 min, 1 h, 2 h and 4 h incubation at room temperature with a Victor 1420 Multilabel plate reader (PerkinElmer). […]
The maximum velocity of the reaction (Vmax) and the Michaelis constant (Km), i.e., substrate concentration at which the reaction rate is half of the maximum, were evaluated for PSA with both peptide substrates using Sigma Plot 11 with the Enzyme Kinetics Module 1.3 (SYSTAT Software, Inc., San Jose, CA) and the catalytic constant (kcat), i.e., the number of substrate molecules converted to product per time unit, was calculated from the equation kcat = Vmax/[PSA]. The absorbance was converted to molar concentration with the Lambert-Beer equation (A = εcl), using the molar absorptivity of pNA (εpNA = 8800 M^−1cm^−1). Fluorescence (counts per second, cps) was transformed to molar concentrations with SigmaPlot by means of a standard curve for 7-amido-4-methylcoumarin (AMC, Sigma-Aldrich).

The target in experiment [6] is T1, PSA. The settings on record: ref [15], [47]; cited from earlier work. The text has this: Previously, several selective and efficient substrates for PSA have been described. We used a fluorogenic peptide substrate identified by Denmeade and coworkers (1997). […] These differences may be explained by higher activity of the highly pu ...

We go through three substances from PMC4169579, “Proteolytic Activity of Prostate-Specific Antigen (PSA) towards Protein Substrates and Effect of Peptides Stimulating PSA Activity” (PLoS ONE, 2014).

Like-named read-outs stand apart in the source and are kept apart here.

T1 sequence (P07288 25-261): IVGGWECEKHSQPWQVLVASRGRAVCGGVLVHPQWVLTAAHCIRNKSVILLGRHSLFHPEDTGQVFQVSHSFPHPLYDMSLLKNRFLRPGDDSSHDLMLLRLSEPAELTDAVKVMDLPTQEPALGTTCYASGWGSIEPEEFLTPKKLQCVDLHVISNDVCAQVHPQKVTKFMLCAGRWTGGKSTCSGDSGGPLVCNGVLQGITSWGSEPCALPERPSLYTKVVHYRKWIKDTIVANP

Turning to “plasminogen: plasminogen (Calbiochem and Hyphen BioMed) and lys-plasminogen from human plasma”, the “cleavage of plasminogen by PSA” value with PSA [1] was “PSA did not cleave plasminogen”; in the experiment with PSA [2] it was “cleave plasminogen to angiostatin-like fragments”.

Turning to “galectin-3: recombinant human galectin-3”, the angiogenesis entry in the experiment with HUVECs [3] was “promote angiogenesis”. The “effect on tube formation, PSA-generated fragments” value in the experiment on HUVECs [4] (10 µg/ml (0.08 µM nidogen-1, 0.4 µM galectin-3) precleaved by 1 µM PSA 24 h, PSA blocked by mAb 5C7, 20 h) was “did not have any effect on tube formation”. The “effect on tube formation, full-length protein” value in the experiment on HUVECs [4] (10 µg/ml (0.08 µM nidogen-1, 0.4 µM galectin-3), 20 h, HUVECs on Matrigel) is “did not have any effect on tube formation”.

Take “MeO-Suc-Arg-Pro-Tyr-pNA·HCl [Chromogenic substrate, chromogenic chymotrypsin substrate S-2586]”: the Km on PSA [5] (405 nm, 5 min intervals for 30 min) came out at 5.72 ± 1.53 mM. The kcat/Km on PSA [5] was 133.4±24.6 s^−1M^−1. Also, on PSA [5] (kcat = Vmax/[PSA]), the kcat came to 0.75 ± 0.07 s⁻¹. The “kcat/Km reported previously, compared to this study” value on PSA [6] was “somewhat lower than that we observed”.

What is called Km is the concentration of substrate that gives half-maximal velocity. As a reminder, the kcat is the number of substrate molecules converted per active site and unit of time at saturation.
